Measured values published in PMC8085067, “The dimer-monomer equilibrium of SARS-CoV-2 main protease is affected by small molecule inhibitors” (Scientific Reports, 2021).
“Also recorded” adds a separate entry of the source.

Target: SARS-CoV-2 M^pro dimer-monomer equilibrium (Severe acute respiratory syndrome coronavirus 2, UniProt P0DTD1)
Experiment: SAXS analysis of M^pro dimer-monomer equilibrium in presence of inhibitors
Conditions: for effect on M^pro dimer-monomer equilibrium (in words): SAXS; for αCp (rate of change of dissociation heat capacity with inhibitor concentration) / αS (rate of change of dissociation entropy with inhibitor concentration) / αG (rate of change of dissociation Gibbs free energy with inhibitor concentration): global SAXS fit, M^pro 30 μM; for αG (rate of change of dissociation Gibbs free energy with inhibitor concentration): inhibitor 30 and 60 μM, 30-45 °C

Compound	effect on M^pro dimer-monomer equilibrium (in words)	αCp (rate of change of dissociation heat capacity with inhibitor concentration)	αS (rate of change of dissociation entropy with inhibitor concentration)	αG (rate of change of dissociation Gibbs free energy with inhibitor concentration)
OCCN(CCOc1c(F)c(F)c(-c2nc(-c3ccncc3)no2)c(F)c1F)CCOc1c(F)c(F)c(-c2nc(-c3ccncc3)no2)c(F)c1F [Inhibitor 3]	do not affect in a significant way the dimer-monomer equilibrium; also recorded: does not alter the native dissociation equilibrium	0±4 10^-2 μM^-1	-8±4 10^-2 μM^-1	0.00±0.08 10^-2 μM^-1
CCNC(=O)c1noc(-c2c(F)c(F)c(NCCN(CCNc3c(F)c(F)c(-c4nc(C(=O)NCC)no4)c(F)c3F)CCNc3c(F)c(F)c(-c4nc(C(=O)NCC)no4)c(F)c3F)c(F)c2F)n1 [Inhibitor 7, 5,5’,5”-(((nitrilotris(ethane-2,1-diyl))tris(azanediyl))tris(2,3,5,6-tetrafluorobenzene-4,1-diyl))tris(N-ethyl-1,2,4-oxadiazole-3-carboxamide)]	mostly able to increase the dissociation equilibrium constant	-3±3 10^-2 μM^-1	-5±2 10^-2 μM^-1	-0.19±0.07 10^-2 μM^-1
Fc1c(F)c(N2CCOCCOCCOCCOCCOCC2)c(F)c(F)c1-c1nc(-c2ccccc2)no1 [Inhibitor 4, 16-(2,3,5,6-tetrafluoro-4-(3-phenyl-1,2,4-oxadiazol-5-yl)phenyl)-1,4,7,10,13-pentaoxa-16-azacyclooctadecane]	do not affect in a significant way the dimer-monomer equilibrium; also recorded: very weak stabilizing effect of the dimer	-2±2 10^-2 μM^-1	-1±5 10^-2 μM^-1	0.0±0.1 10^-2 μM^-1
